Results: US7258861B2, “TNF-derived peptides for use in treating oedema” (Innogenetics N.V., priority 2001, dated 2007)

Tests used:
[1] = tested on: lung microvascular endothelial cells; test: Whole-cell patch clamp, membrane conductance in lung microvascular endothelial cells; type: cell-based, mouse
Text: (§1) Animals, cells and reagents. Male CBA/J or C57BL/6 mice, as well as male TNFR ½^0/0 C57BL/6 mice deficient in TNF receptors (Bruce et al., 1996) provided by H. Bluethmann, F. Hoffmann-La Roche, Basel, Switzerland, were used at the age of 8–10 weeks. Their care was in accordance with institutional guidelines. Lung microvascular endothelial cells were isolated from CBA/J mice and characterized as described (Jackson et al., 1990) using magnetic beads (Dynabeads M-450, Dynal, Oslo, Norway), covalently bound to a purified rat-anti-mouse PECAM-1 monoclonal antibody (donated by B. Imhof, University of Geneva). Microvascular lung endothelial cells were resuspended in DMEM containing 2 mM L-glutamine, 100 U/ml penicillin, […], 20% FCS, 40 U/ml heparin and […] endothelial cell growth supplement (Brunschwig Chemie, Basel, Switzerland). For patch clamp experiments, cells were plated onto 35×10 mm easy grip Petri dishes (Beckton Dickinson, Plymouth, UK), pre-coated with 0.2% gelatin (Sigma, Buchs, Switzerland). Resident peritoneal macrophages, isolated in ice cold RPMI containing antibiotics and 10 U/ml Heparin, were left to adhere onto 35×10 mm easy grip Petri dishes for 4 h, after which the non-adherent cells were removed. Cells were grown in RPMI 1640 containing 2 mM L-glutamine, 100 U/ml penicillin, 10 μpg/ml streptomycin and 10% fetal bovine serum (all from Gibco). For patch clamp, the macrophages ware used 24 h after isolation.
Electrophysiology. Cells were pretreated for 30 min with TNF, mutTNF and tip peptides at 37° C. in a buffer consisting of 145 mM NaCl, 3 mM KCl, 2mM CaCl2, 2mM MgCl2, 10 mM D-glucose, and 10mM Hepes, and pH-adjusted with NaOH to required value. Cells were then washed with the same buffer pH-adjusted at 7.3, and experiments were performed using the tight-seal, whole-cell recording technique. Currents were recorded with an Axopatch-200A amplifier (Axon Instrument Inc, Foster City, Calif., USA), low pass-filtered at 1 kHz. Digitalization and off-line analysis was performed using the WCP program (J. Dempster, Strathclyde Electrophysiology Software, Glasgow, UK). Patch pipettes were pulled from borosilicate glass and fire polished to have an open resistance of 3–5 MW with an internal solution containing […], 2 mM MgCl2, 10mM EGTA, 20 mM TEA-Cl, 10 mM D-glucose 10 mM Hepes, pH-adjusted to 7.3 with CsOH. Series resistances were kept under 10 MW. Capacitance and series resistance compensation were applied and set to 70%. All experiments were done at room temperature. Results are given as mean ±SEM, unless otherwise indicated. Analysis of variance was performed on currents and membrane conductance values, with post-hoc Dunn-Bonferroni test for significance of differences observed between two groups. A P value of 0.05 was considered significant.

[2] = tested on: resident peritoneal macrophages from mice deficient in both TNF receptor-1 and -2; test: Whole-cell patch clamp in resident peritoneal macrophages of TNFR1/2-deficient mice; type: cell-based, mouse; settings: cells lacking TNF receptors
Text: as §1, with “Cells were grown in RPMI 1640 containing 2 mM L-glutamine, 100 U/ml penicillin, 10 μpg/ml streptomycin and 10% fetal bovine serum (all from Gibco). For patch clamp, the macrophages ware used 24 h after isolation.” left out
Electrophysiology. […] Currents were recorded with an Axopatch-200A amplifier (Axon Instrument Inc, Foster City, Calif., USA), low pass-filtered at 1 kHz. […]

[3] = Quenching of tryptophan fluorescence by brominated lipids; settings: acidic pH
Text: In order to investigate whether chloride efflux was due to membrane binding or membrane insertion of TNF, we have analyzed whether brominated lipids were able to quench the intrinsic fluorescence of TNF and mutTNF upon membrane interaction. Brominated lipids have been useful in determining the topology of membrane proteins (Bolon et al., 1990) (Markello et al., 1985) as well as studying the membrane interaction of pore-forming toxins (Gonzalez-Manas et al., 1992) (Van der Goot et al., 1991) (Vecsey-Semjen et al., 1997). TNF contains two tryptophan residues, one at the top of the receptor binding domain and one at the top of the so called tip domain. If the tip of the TNF trimer were to insert into the lipid bilayer, the fluorescence of Trp-113 should be quenched upon insertion into liposomes composed of dioleoylphosphatidylglycerol that had bromines attached at positions 9 and 10 of the acyl chains. We have indeed previously observed that tryptophans located at the boundary between the lipid head groups and the acyl chains were succeptible to bromide quenching.

C57/BL6 wild type mice = test: In situ mouse model of alveolar fluid clearance, wild type mice; type: in vivo; settings: over 15 min, compared to controls; 0.5 μg/mouse instilled
Experimental: In situ mouse model. Mice were killed by an overdose of pentobarbital sodium (200 mg/kg i.p.). A tracheotomy was done with a 20-gauge trimmed angiocath plastic needle (Becton Dickinson, Sandy, Utah, USA). The lungs were inflated with 7 cm H2O continuous positive airway pressure (CPAP) with 100% oxygen throughout the experiments. Body temperature was maintained at 37–38° C. by an infra-red lamp placed 30 cm above the body (Fisher, Santa Clara, Calif., USA). The lamp was cycled on and off to maintain the core temperature. A temperature probe (Yellow Springs Instrument, Yellow Springs, Ohio, USA) was inserted via a 0.5 cm incision into the abdominal cavity to monitor the core temperature throughout the experiment. These methods have been reported in Matthay et al., 1996 and Ma et al., 2000. […] We added 0.1 μCi of ^131I-labelled albumin (Merck-Frost, Montreal, PQ, Canada) to the instillate as a labeled alveolar protein tracer. • Group 1: Basal alveolar fluid clearance in the wild type mice (n=3) and TNF-R1/TNF-R2 double knock out mice (n=3). • Group 2: Effect of wild type mTNF (0.5 μg/mouse) stimulated alveolar fluid clearance was measured in wild type mice (n=5) and TNF-R1/TNF-R2 double knock out mice (n=5) (Bruce et al., 1996).

normal rats = settings: instillation in normal rats, over 1 hour; cited from earlier work

With “TNF: E.coli-derived recombinant murine TNF” the “induced increase in conductance in presence of amiloride” value ([1]; 100 μM amiloride added during pretreatment at pH 6.0) was “abrogated”, the “whole cell current / membrane conductance” value ([1]; 30 min preincubation at acidic pH (pH 6), TNF, mutTNF 100 ng/ml, peptides 100 μg/ml) was “significant increase in outward and, to a lesser extent, inward current” and the “reversal potential of induced conductance” value ([1]; endothelial cells) was “about 0 mV”. The “whole cell current / membrane conductance” value ([1]; preincubation at pH 7.3 (neutral pH)) was “did not occur”, the whole cell current [2] was “induced a voltage-dependent current” and the “fluorescence quenching by brominated lipids” value [3] was “unable to see any fluorescence quenching”. The “increase in alveolar fluid clearance (AFC)” value (C57/BL6 wild type mice) was 24% and the “increase of alveolar liquid clearance” value (normal rats) was 43%.
